Experimental data reported in patent US8338482B2, “Modulating notch1 signaling pathway for treating neuroendocrine tumors” (Wisconsin Alumni Research Foundation, priority 2007, dated 2012).

Columns and labels:
Notch1 = assay: CBF1 binding site luciferase reporter assay; assay type: cell-based, human; settings: DAPT 50 μM pretreatment 45 minutes, then 4 mM VPA
Description: Luciferase Reporter Assays GI carcinoid tumor cells were transiently transfected with luciferase constructs as previously described (Kunnimalaiyaan, M. et al., Conservation of the Notch1 signaling pathway in gastrointestinal carcinoid cells A J Physiol Gastrointest Liver Physiol 2005; 289:G636-642). Wild-type (4xwtCBF1Luc; 2 μg) or mutant (4xmutCBF1Luc; 2 μg) CBF1-luciferase reporter plasmids were co-transfected with CMV-β-gal (0.5 μg) (Hsieh J J et al., Truncated Mammalian Notch1 Activates CBF1/RBPJk-Repressed Genes by a Mechanism Resembling That of Epstein-Barr Virus EBNA2. Mol Cell Biol 1996; 16:952-959). In experiments with the γ-secretase inhibitor, N-[N-(3,5-difluorophenacetyl)-L-alanyl]-S-phenylglycine t-butyl ester (DAPT; EMD Biosciences, Darmstadt, Germany), to inhibit Notch1 cleavage and activation, cells were pretreated for 45 minutes with DAPT (50 μM) then treated with 4 mM VPA. […] Luciferase levels were measured using a Monolight 2010 Luminometer (Analytical Luminescence Laboratory, San Diego, Calif.). […]

MEK = MEK inhibitors and Notch1-mediated hormone suppression; assay type: cell-based, human; settings: PD098059 25-50 uM or U0126 5-20 uM pre-treatment
Description: 1) MEK inhibitors. BON, BON-Notch1, H727, H727-Notch1, TT, and TT-Notch1 cells are pre-treated with either PD098059 (25-50 uM) or U0126 (5-20 uM) (both well-characterized MEK inhibitors) (Sippel R S, et al., Am J Physiol Gastrointest Liver Physiol 2003; 285:G245-G254; Sippel R S, et al., Surgery 2003; 134:866-871), alone or in combination, followed by addition of control or doxycycline (1 μg) for 24, 48, and 96 hours. Cells are then analyzed with the following methods.
2) Confirmation of MEK inhibition. To confirm MEK inhibition after treatment with PD098059 and U0126, cellular extracts are analyzed by Western blots utilizing antibodies against MEK, phospho-MEK, ERK1/2, and phospho-ERK1/2. MAPK in vitro kinase assay with a commercially available kit (Cell Signal Technology) is used to confirm blockade of MEK activity.
3) hASH1 and NE marker expression. To determine if MEK inhibition blocks Notch1-mediated NE marker suppression, cellular extracts are analyzed using western blots with hASH1, chromogranin A, synaptophysin, and neuron-specific enolase, and serotonin or calcionin secretion will be assessed using an ELISA assay, as described above.

[1] = system: BON human GI carcinoid cancer cells; assay: Western blot analysis of GI carcinoid cells; assay type: cell-based
Description: Cell Culture BON human GI carcinoid cancer cells, kindly provided by Drs. B. Mark Evers and Courtney M. Townsend, Jr.
Total protein concentrations were quantified with a bicinchoninic acid assay kit (Pierce Biotechnology, Rockford, Ill., USA). Denatured cellular extracts were resolved by SDS-PAGE, transferred to nitrocellulose membranes (Schleicher and Schuell, Keene, N.H., USA), blocked in milk, and incubated with appropriate antibodies. The antibody dilutions were: 1:1,000 for Notch1 (Santa Cruz Biotechnology, Santa Cruz, Calif., USA), mammalian achaete-scute homolog 1 (ASCL1; BD Biosciences, San Diego, Calif., USA), chromogranin A (Zymed Laboratories, San Francisco, Calif., USA), and cyclin D1 (Cell Signaling Technology, Danvers, Mass., USA), 1:2,000 for p21 (Cell Signaling Technology) and p27 (Santa Cruz Biotechnology), and 1:10,000 for glyceraldehyde-3-phosphate dehydrogenase (G3PDH; Trevigen, Gaithersburg, Md., USA). Horseradish peroxidase conjugated goat anti-rabbit or goat anti-mouse secondary antibodies (Pierce Biotechnology) were used depending on the source of the primary antibody. For visualization of the protein signal, Immunstar (Bio-Rad Laboratories, Hercules, Calif., USA) or SuperSignal West Femto (Pierce Biotechnology) kits were used per the manufacturer's instructions.
Cell Culture BON human gastrointestinal (GI) carcinoid tumor cells, kindly provided by Drs. B. Mark Evers and Courtney M. Townsend, Jr.
Total protein concentrations were quantified with a bicinchoninic acid assay kit (Pierce Biotechnology, Rockford, Ill.). Denatured cellular extracts were resolved by SDS-PAGE, transferred onto nitrocellulose membranes (Schleicher and Schuell, Keene, N H), blocked in milk, and incubated with appropriate antibodies. The antibody dilutions were: 1:1,000 for Notch1 (Santa Cruz Biotechnology, Santa Cruz, Calif.), mammalian achaete-scute homolog 1 (ASCL1; BD Biosciences, San Diego, Calif.), chromogranin A (Zymed Laboratories, San Francisco, Calif.), and cyclin D1 (Cell Signaling Technology, Danvers, Mass.), 1:2,000 for p21 (Cell Signaling Technology) and p27 (Santa Cruz Biotechnology), and 1:10,000 for glyceraldehyde-3-phosphate dehydrogenase (G3PDH; Trevigen, Gaithersburg, Md.). Horseradish peroxidase conjugated goat anti-rabbit or goat anti-mouse secondary antibodies (Pierce Biotechnology) were used depending on the source of the primary antibody. For visualization of the protein signal, Immunstar (Bio-Rad Laboratories, Hercules, Calif.) or SuperSignal West Femto (Pierce Biotechnology) kits were used per the manufacturer's instructions.

[2] = system: H727 human lung carcinoid cancer cells; assay: Western blot analysis of pulmonary carcinoid cells; assay type: cell-based
Human MTC TT cells [3] = assay: Western blotting of medullary thyroid cancer cells; assay type: cell-based; settings: concentrations up to 25 μM
Description: (§1) Human MTC TT cells were treated with SBHA in concentrations up to 25 μM and analyzed by Western blotting for evidence of Notch1 pathway activation and changes in neuroendocrine markers. MTT assay was used to measure cell viability. Finally mechanism of growth inhibition was analyzed by Western blotting.

[4] = system: H727 human lung carcinoid cancer cells; assay: MTT cell proliferation assay, pulmonary carcinoid cells; assay type: cell-based; settings: up to 6 days
Description: (§2) Cell Culture BON human GI carcinoid cancer cells, kindly provided by Drs. B. Mark Evers and Courtney M. Townsend, Jr. (University of Texas Medical Branch, Galveston, Tex., USA), and H727 human lung carcinoid cancer cells (American Type Tissue Collection, Manassas, Va., USA) were maintained as previously described (Sippel, R S et al., Raf-1 Activation Suppresses neuroendocrine marker and hormone levels in human gastrointestinal carcinoid cells. Am J Physiol Gastrointest Liver Physiol. 2003 August; 285(2):G245-54, Van Gompel J J et al., ZM336372, A Raf-1 Activator, Suppresses Growth and Neuroendocrine Hormone Levels in Carcinoid Tumor Cells. Mol Cancer Ther. 2005 June; 4(6):910-7)
Cell Proliferation Assay Carcinoid cancer cell proliferation was measured by the MTT (thiazolyl blue tetrazolium bromide; Sigma-Aldrich, St. Louis, Mo., USA) rapid calorimetric assay as previously described (Van Gompel J J et al., ZM336372, A Raf-1 Activator, Suppresses Growth and Neuroendocrine Hormone Levels in Carcinoid Tumor Cells. Mol Cancer Ther. 2005 June; 4(6):910-7). Briefly, cells were seeded in quadruplicate on 24-well plates and incubated for 24 hours to allow cell attachment. The cells were then treated with SBHA (Sigma-Aldrich) in concentrations of 0 to 50 μM and incubated for up to 6 days. The MTT assay was performed by replacing the standard medium with 250 μL of serum-free medium containing MTT (0.5 mg/mL) and incubated at 37° C. for 3 hours. […] The plates were then measured at 540 nm using a spectrophotometer (μQuant; Bio-Tek Instruments, Winooski, Vt., USA). […]
(§3) Cell Proliferation Assay Carcinoid tumor cell proliferation was measured by the MTT (methylthiazolyldiphenyl-tetrazolium bromide; Sigma-Aldrich, St. Louis, Mo.) rapid colorimetric assay as previously described (Van Gompel J J et al., ZM336372, A Raf-1 Activator, Suppresses Growth and Neuroendocrine Hormone Levels in Carcinoid Tumor Cells. Mol Cancer Ther 2005; 4:910-917). […] The plates were then measured at 540 nm using a spectrophotometer (μQuant; Bio-Tek Instruments, Winooski, Vt.).

[5] = system: BON human GI carcinoid cancer cells; assay: MTT cell proliferation assay, GI carcinoid cells; assay type: cell-based
Description: as §2
Cell Proliferation Assay Carcinoid cancer cell proliferation was measured by the MTT (thiazolyl blue tetrazolium bromide; Sigma-Aldrich, St. Louis, Mo., USA) rapid calorimetric assay as previously described (Van Gompel J J et al., ZM336372, A Raf-1 Activator, Suppresses Growth and Neuroendocrine Hormone Levels in Carcinoid Tumor Cells. Mol Cancer Ther. 2005 June; 4(6):910-7). Briefly, cells were seeded in quadruplicate on 24-well plates and incubated for 24 hours to allow cell attachment. The cells were then treated with SBHA (Sigma-Aldrich) in concentrations of 0 to 50 μM and incubated for up to 6 days. The MTT assay was performed by replacing the standard medium with 250 μL of serum-free medium containing MTT (0.5 mg/mL) and incubated at 37° C. for 3 hours. After incubation, 750 μL of dimethyl sulfoxide (Sigma-Aldrich) was added to each well and mixed thoroughly. The plates were then measured at 540 nm using a spectrophotometer (μQuant; Bio-Tek Instruments, Winooski, Vt., USA).
Cell Culture BON human gastrointestinal (GI) carcinoid tumor cells, kindly provided by Drs. B. Mark Evers and Courtney M. Townsend, Jr. […]
as §3

Human MTC TT cells [6] = assay: MTT cell viability assay, medullary thyroid cancer cells; assay type: cell-based; settings: concentrations up to 25 μM
Description: as §1

carcinoid tumor cells = settings: cited from earlier work
hASH1 = settings: small cell lung cancer cells; cited from earlier work

## C[C@H](NC(=O)Cc1cc(F)cc(F)c1)C(=O)N[C@H](C(=O)OC(C)(C)C)c1ccccc1 [DAPT, N-[N-(3,5-difluorophenacetyl)-L-alanyl]-S-phenylglycine t-butyl ester]
Notch1
  effect of VPA on CBF1 binding: blocked the effect of VPA on CBF1 binding

## COc1cccc(-c2cc(=O)c3ccccc3o2)c1N [PD098059]
MEK
  Notch1-mediated hormone suppression: block

## O=C(CCCCCCC(=O)Nc1ccccc1)NO [SAHA, suberoylanilide hydroxamic acid]
[1]; 30 μM, 2 days
  ASCL1 protein: undetectable level
[1]; SBHA/SAHA treatment, 48 hours
  ASCL1 protein: dose-dependent decrease
[1]; SBHA/SAHA, 2 days of treatment
  chromogranin A level: only modest inhibition
[2]; 50 μM, 2 days
  chromogranin A level: complete suppression
[2]; 48 hours
  concentrations at which significant Notch1 induction was seen: 20 to 30 µM
[2]; SBHA/SAHA treatment, 48 hours
  ASCL1 protein: dose-dependent decrease

## O=C(CCCCCCC(=O)NO)NO [SBHA, suberic bishydroxamic acid]
[1]; 48 hours, concentrations as low as
  concentration resulting in induction of full-length Notch1 and Notch1 intracellular domain (NICD): 5 µM
[1]; SBHA, 48 hours
  levels of cyclin D1: decreased levels
  levels of cyclin-dependent kinase inhibitors p21 and p27: increased levels
[2]; SBHA, 48 hours
  levels of cyclin D1: decreased levels
  levels of cyclin-dependent kinase inhibitors p21 and p27: increased levels
Human MTC TT cells [3]
  ASCL1: concomitant decrease
  active form of Notch1: dose-dependent induction
  chromogranin A: decrease
  cleaved poly ADP-ribose polymerase (PARP) and caspase-3: increase in protein levels
[4]; SBHA 0 to 50 μM
  cell growth: dose-dependent growth suppression
[4]
  concentrations that produced growth inhibition: 20 to 50 µM
[5]; SBHA 0 to 50 μM, up to 6 days
  cell proliferation: profound dose-dependent inhibition
[5]; after 4 days of exposure
  concentration giving significant growth inhibition: 5 µM
Human MTC TT cells [6]
  cell viability: dose-dependant decrease

## N#CC(=C(/N)Sc1ccccc1N)/C(C#N)=C(\N)Sc1ccccc1N [U0126]
MEK
  Notch1-mediated hormone suppression: block

## CCCC(=O)[O-].[Na+] [sodium butyrate]
Carcinoid tumor cells
  cyclin D1: concomitant downregulation
  p21 and p27: increase

## CC(/C=C/C(=O)NO)=C\[C@@H](C)C(=O)c1ccc(N(C)C)cc1 [trichostatin A]
Carcinoid tumor cells
  cyclin D1: concomitant downregulation
  p21 and p27: increase

## c5p25: hASH1 anti-sense oligonucleotide 5′-UCCUACUAAGGCUGC-3′ (SEQ ID NO: 2) (listed as RNA, chemistry not given here)
hASH1
  hASH1 expression: minimal hASH1 inhibitory activity

## c5p1476: hASH1 anti-sense oligonucleotide 5′-GGAGCCCACUGCUUU-3′ (SEQ ID NO: 1), directed at the hASH1 3′UTR (listed as RNA, chemistry not given here)
hASH1
  hASH1 expression: very potent inhibitor

## c5pMiss1: missense oligonucleotide 5′-GCUACAUCUGGUCGC-3′ (SEQ ID NO: 3) (listed as RNA, chemistry not given here)
hASH1
  hASH1 expression: no affect

## c5pMiss2: missense oligonucleotide 5′-CACUGAUGCACCUGU-3′ (SEQ ID NO: 4) (listed as RNA, chemistry not given here)
hASH1
  hASH1 expression: no affect
